For data set [1], the system named is Pseudomonas aeruginosa. In words: Agar plate disc-diffusion, antibacterial, Pseudomonas aeruginosa. Format: cell-based. As to conditions: nutrient agar, 37° C., 48 hours. As for the experimental part:
(§1) The agar plate disc-diffusion method was applied. Sterilized filter papers (6 mm in diameter) were wetted with 10 μL of a solution of 2-(benzo[d]oxazol-2-yl)-N′-(2-(5-(4-chlorophenyl)-1,3,4-oxadiazol-2-ylthio)acetoxy)acetimidamide (3) to be tested, […], and the discs were allowed to air dry. The discs were then placed onto the surface of agar plates (nutrient agar for bacteria and Sabouraud's dextrose agar for fungi) seeded with the test organism. Each plate contained 15 mL of the agar medium, previously seeded with 0.2 mL of the broth culture of each organism pregrown for 18 hours. The plates were incubated at 37° C. for 48 hours and 72 hours for fungi. The inhibition zones were measured in mm. Discs impregnated with DMSO were used as a control, and their inhibition zone was subtracted from the tested compound's actual inhibition zone.

Data set [2] concerns Aspergillus flavus. The data set can be described thus: Agar plate disc-diffusion, antifungal, Aspergillus flavus. Type of data set: cell-based. As to conditions: Sabouraud's dextrose agar, 37° C., 72 hours. As for the experimental part: as §1
Data set [3] relates to Bacillus cereus. In words: Agar plate disc-diffusion, antibacterial, Bacillus cereus. Format: cell-based. As to conditions: nutrient agar, 37° C., 48 hours. As for the experimental part: as §1
Data set [4] deals with Chrysosporium keratinophilum. In words: Agar plate disc-diffusion, antifungal, Chrysosporium keratinophilum. Format: cell-based. As to conditions: Sabouraud's dextrose agar, 37° C., 72 hours. The method, then:
as §1
(Agar diffusion results depend on both activity and mobility in agar.)

Data set [5] has as its system Staphylococcus aureus. In words: Agar plate disc-diffusion, antibacterial, Staphylococcus aureus. Format: cell-based. As to conditions: nutrient agar, 37° C., 48 hours. The method, then: as §1
For data set [6], the system named is Escherichia coli. In words: Agar plate disc-diffusion, antibacterial, Escherichia coli. Type of data set: cell-based. Particulars: nutrient agar, 37° C., 48 hours. The method, then: as §1
Setting [7] is: A = concentration of comp. = 10,000 μg/mL.
Where [8] appears, read: B = concentration of comp. = 30,000 μL.
The mark [9] stands for this setting: C = concentration of comp. = 50,000 μL.
Where [10] appears, read: A = concentration of comp. = 10,000 μL.
The mark [11] stands for this setting: A = concentration of comp. = 10 mg/mL.

Turning to `O=C(O)c1cn(C2CC2)c2cc(N3CCNCC3)c(F)cc2c1=O` [Cip., ciprofloxacin, reference compound], the inhibition zone in data set [1] (setting [7]) is listed as 29 mm; in data set [1] (setting [8]), 30 mm; in data set [1] (setting [9]), 53 mm; in data set [2] (setting [10]), 29 mm; in data set [2] (setting [8]), 30 mm; in data set [2] (setting [9]) it was 42 mm. Besides, the inhibition zone was found to be 29 mm in data set [3] (setting [10]); 30 mm in data set [3] (setting [8]); 42 mm in data set [3] (setting [9]); 29 mm in data set [4] (setting [11]); 30 mm in data set [4] (setting [8]); 53 mm in data set [4] (setting [9]). In addition, the inhibition zone in data set [5] (setting [10]) was determined as 43 mm; in data set [5] (setting [8]) it was 44 mm; in data set [5] (setting [9]), 53 mm; in data set [6] (setting [7]), 30 mm; in data set [6] (setting [8]) it was 39 mm; in data set [6] (setting [9]) it was 60 mm.

As usually defined, the melting point is the temperature of the solid-liquid transition. Regarding `N/C(Cc1nc2ccccc2o1)=N\OC(=O)CSc1nnc(-c2ccc(Cl)cc2)o1` [Compound 3, 2-(benzo[d]oxazol-2-yl)-N′-(2-(5-(4-chlorophenyl)-1,3,4-oxadiazol-2-ylthio)acetoxy)acetimidamide], the melting point is 162 to 163 °C. In addition, the inhibition zone in data set [1] (setting [7]) was found to be 24 mm. Further, the inhibition zone in data set [1] (setting [8]) worked out at 29 mm. This compound registered an inhibition zone in data set [1] (setting [9]) of 36 mm. Further, the inhibition zone in data set [2] (setting [10]) was found to be 25 mm. Besides, the inhibition zone in data set [2] (setting [8]) is on record as 30 mm. The inhibition zone in data set [2] (setting [9]) was 41 mm. Besides, the inhibition zone in data set [3] (setting [10]) is given as 27 mm. Besides, the inhibition zone in data set [3] (setting [8]) stood at 30 mm. Moreover, the inhibition zone in data set [3] (setting [9]) is listed as 41 mm. Moreover, in data set [4] (setting [11]), the inhibition zone is on record as 28 mm. The inhibition zone in data set [4] (setting [8]) was determined as 35 mm. The compound also showed an inhibition zone in data set [4] (setting [9]) of 47 mm. Besides, in data set [5] (setting [10]), the inhibition zone worked out at 27 mm. For the same compound, the inhibition zone in data set [5] (setting [8]) worked out at 35 mm. For the same compound, the inhibition zone in data set [5] (setting [9]) came out at 42 mm. The compound also came in with an inhibition zone in data set [6] (setting [7]) of 28 mm. The compound also gave an inhibition zone in data set [6] (setting [8]) of 37 mm. In data set [6] (setting [9]), the inhibition zone turned out to be 49 mm.

The record behind these values is patent US11912694B1, “2-(benzo[d]oxazol-2-yl)-N′-(2-(5-(4-chlorophenyl)-1,3,4-oxadiazol-2-ylthio)acetoxy)acetimidamide as an antimicrobial compound” (KING FAISAL UNIVERSITY, priority 2023, dated 2024).
